Paper PMC9785202, “Changes in Disposition of Ezetimibe and Its Active Metabolites Induced by Impaired Hepatic Function: The Influence of Enzyme and Transporter Activities” (Pharmaceutics, 2022)
Where two headings read alike, the source gives them in different places. Each block holds one molecule with its values, some of them ahead of it.

How the values were obtained:
[1] = Pharmacokinetics after intravenous or oral administration of 10 mg/kg EZE to control and CCl4-induced rats; type: in vivo; conditions: for AUC(0-t) / half-life / Cmax at 5 min / Cmax / Tmax: Sprague-Dawley, rat, plasma, 10 mg/kg; for Cmax at 5 min: read-out: Cmax (* plasma concentration at 5 min after intravenous injection)
Description: Animals were fasted for 12 h with free access to water before the experiments. EZE was administered orally (prepared in 0.5% carboxymethylcellulose sodium) or intravenously (dissolved in 10% dimethyl sulfoxide, 10% tween-80, and 80% sterile H2O) to CCl4-induced rats (n = 5) and control rats (n = 5) at 10 mg/kg. Blood samples were collected from the retro-orbital venous plexus before administration (0 h), at 5, 15, and 30 min, and at 1, 2, 4, 6, 8, 12, 24, and 48 h after administration in tubes containing EDTA-2K. Plasma samples were harvested by centrifugation at 11,600 g for 5 min at 4 °C and then stored at −80 °C until further analysis.
(§1) A 25.0 μL aliquot of each sample and 25.0 μL of internal standard (50.0 ng/mL EZE-d4) were mixed with 100 μL of acetonitrile. After the samples were vortexed and centrifugated at 2250 g for 15 min, the supernatants were used to measure EZE and its metabolites by LC-MS/MS.
(§2) WinNonlin version 6.1 (Pharsight Corp., Cary, NC, USA) was used to calculate the pharmacokinetic parameters in a non-compartmental model. Statistical comparisons between the two groups were evaluated using a Student’s two-tailed unpaired t-test or the nonparametric Mann–Whitney test in GraphPad Prism (version 8.0, GraphPad Software Inc, SanDiego, CA, USA). A value of p < 0.05 was considered significant. All data were presented as the mean ± S.D. (n ≥ 3).

[2] = Portal vein and femoral vein plasma pharmacokinetics after oral EZE; type: in vivo, rats; conditions: oral 10 mg/kg EZE; for AUC(0-t): Sprague-Dawley, rat, po, 10 mg/kg
Description: To investigate changes due to the first-pass metabolism and biliary excretion during liver disease, CCl4-induced rats (n = 5) and control rats (n = 5) were anesthetized and the hepatic portal and femoral veins were cannulated with PE-50 polyethylene tubing. EZE was orally administered to rats at 10 mg/kg. Blood samples were collected simultaneously from the hepatic portal and femoral veins before administration (0 h), at 5, 15, and 30 min, and at 1, 2, 4, 6, 8, 12, 24, and 48 h after administration. Plasma samples were harvested as previously described.
as §1, §2

UGTs = test: Incubation of EZE with liver S9 fractions of control and CCl4-induced rats (glucuronidation); type: in vitro ADME, rat; conditions: 60 min
Description: One portion of the rat liver tissue was homogenized in a 5-fold volume of ice-cold phosphate buffer (including 250 mM sucrose, 10 mM Tris-HCl, and 1 mM EDTA-2Na, pH 7.4) and centrifugated at 9000 g for 20 min. After centrifugation, the supernatant was collected as the S9 fraction and stored at −80 °C.
To evaluate the effect of hepatic impairment on the hepatic metabolism of EZE, 0.3 μM, 3 μM, and 30 μM EZE were incubated with rat liver S9 fractions (2 mg of protein/mL) at 37 °C for 60 min in the Tris-HCl-buffered system (100 mM, pH 7.4), consisting of UDPGA (1 mM), MgCl2 (10 mM), and alamethicin (25 μg/mL). To investigate the effect of bile acids on the metabolism of EZE in the liver, 3 μM EZE was incubated with rat or human liver S9 fractions (2 mg of protein/mL) at 37 °C for 60 min in the Tris-HCl-buffered system with or without bile acids at 1, 10, and 100 μM. The total volume of the incubation system was 100 μL. The reactions were terminated by adding 100 μL of ice-cold acetonitrile. Samples were stored at −20 °C until analysis. EZE and EZE-Ph were detected by liquid chromatography with tandem mass spectrometry (LC-MS/MS).

rat primary hepatocytes = test: Uptake of EZE and EZE-Ph by rat primary hepatocytes; type: in vitro ADME; conditions: 10 μM, 10 min
Description: Rat primary hepatocytes were isolated from male SD rats as previously described [34]. Fresh rat hepatocytes (120,000 per well) were cultured in Williams’ E medium (containing 0.1 μM dexamethasone, 5% fetal bovine serum, 1% penicillin G/streptomycin, 1% GlutaMAX-I, and 1% insulin–transferrin–selenium) on collagen I-coated 48-well plates. Rat hepatocytes cultured for 4 h under a carbogen atmosphere were directly used for uptake assays.
The hepatocytes were rinsed three times with HBSS (37 °C) and equilibrated in HBSS for 10 min. […] After 10 min of incubation, cells were quickly washed three times with ice-cold HBSS and then lysed by the addition of 300 μL of purified water. The protein content was measured using the BCA protein assay kit. EZE and EZE-Ph were analyzed by LC-MS/MS.
The rates of substrate uptake were normalized using the protein contents of cell lysates.

MDR1 = biological target: T1, MDR1 (Homo sapiens, UniProt P08183); test: Transport study with MDR1-expressing membrane vesicles; type: in vitro ADME; conditions: 10 μM, 10 min
T1 construct: purchased GenoMembrane Co., Ltd. (Yokohama, Japan); host or cells: Sf9 insect cells
Description: (§3) Human MDR1-, MRP2-, and MRP3-expressing membrane vesicles isolated from Sf9 insect cells were sourced from GenoMembrane Co., Ltd. (Yokohama, Japan).
(§4) In transport studies, a modified rapid filtration technique was used according to the manufacturer’s protocol (GenoMembrane Co.). The uptake of test compounds (10 μM EZE or EZE-Ph) into membrane vesicles (100 μg protein/100 μL) was conducted with or without 4 mM ATP in the transport medium (50 μL, pH 7.4), which included 50 mM MOPS-Tris, 70 mM KCl, and 7.5 mM MgCl2. The vesicular transport was terminated after 10 min by adding 200 μL of ice-cold stop buffer containing 40 mM MOPS-Tris and 70 mM KCl. The stopped incubate was quickly transferred to a 96-well glass fiber filter plate (Millipore, MA, USA) and washed five times with ice-cold stop buffer. The EZE and EZE-Ph inside the vesicles were released by adding 200 μL of methanol–water (70:30, v/v) and analyzed by LC-MS/MS. The ATP-dependent transport was evaluated based on the ratio of transport with ATP to that without ATP.

MRP2 = biological target: T2, MRP2 (Homo sapiens, UniProt Q92887); test: Transport study with MRP2-expressing membrane vesicles; type: in vitro ADME; conditions: 10 μM, 10 min
T2 construct: purchased GenoMembrane Co., Ltd. (Yokohama, Japan); host or cells: Sf9 insect cells
Description: as §3, §4

MRP3 = biological target: T3, MRP3 (Homo sapiens, UniProt O15438); test: Transport study with MRP3-expressing membrane vesicles; type: in vitro ADME; conditions: 10 μM, 10 min
T3 construct: purchased GenoMembrane Co., Ltd. (Yokohama, Japan); host or cells: Sf9 insect cells
Description: as §3, §4

[3] = for Autosampler stability (4°C, 24 h), RE / Post-extraction stability (room temperature 3 h), RE / Freeze-thaw stability (−20°C, three cycles), RE / Short-term stability (room temperature 3 h), RE: n = 6; for stability in rat plasma under the test conditions: LQC and HQC samples, short-term, post-extraction, auto-sampler, three freeze/thaw cycles; for Freeze-thaw stability (−20°C, three cycles), RE / Short-term stability (room temperature 3 h), RE: rat plasma; for stability in blood: room temperature for 2 h
Description: The instrument parameters were as follows: ion spray voltage, −4500 V; source temperature, 550 °C; nebulizer gas, 60 psi; heater gas, 60 psi; and curtain gas, 40 psi. […] Data were acquired and processed with the Analyst 1.6.3 software (Applied Biosystems). The standard curve ranges were 1.00 to 1000 ng/mL for EZE, 3.00 to 3000 ng/mL for EZE-Ph, and 1.00 to 1000 ng/mL for EZE-Hy in plasma.
Summary of the stability of ezetimibe and its metabolites in rat plasma (n = 6).

[4] = iv, i.v. 10 mg/kg EZE, CCl4-induced rats
[5] = iv, i.v. 10 mg/kg EZE, control rats
[6] = po, p.o. 10 mg/kg EZE, CCl4-induced rats
[7] = po, p.o. 10 mg/kg EZE, control rats
[8] = intravenous injection of 10 mg/kg EZE
[9] = oral administration of 10 mg/kg EZE
[10] = femoral vein plasma, CCl4-induced rats, read-out: AUC0–t in femoral vein plasma
[11] = femoral vein plasma, control rats, read-out: AUC0–t in femoral vein plasma
[12] = portal vein plasma, CCl4-induced rats, read-out: AUC0–t in portal vein plasma
[13] = portal vein plasma, control rats, read-out: AUC0–t in portal vein plasma
[14] = LQC (EZE/EZE-Ph/EZE-Hy 3.00/9.00/3.00 ng/ml)

T3 sequence (O15438 whole entry): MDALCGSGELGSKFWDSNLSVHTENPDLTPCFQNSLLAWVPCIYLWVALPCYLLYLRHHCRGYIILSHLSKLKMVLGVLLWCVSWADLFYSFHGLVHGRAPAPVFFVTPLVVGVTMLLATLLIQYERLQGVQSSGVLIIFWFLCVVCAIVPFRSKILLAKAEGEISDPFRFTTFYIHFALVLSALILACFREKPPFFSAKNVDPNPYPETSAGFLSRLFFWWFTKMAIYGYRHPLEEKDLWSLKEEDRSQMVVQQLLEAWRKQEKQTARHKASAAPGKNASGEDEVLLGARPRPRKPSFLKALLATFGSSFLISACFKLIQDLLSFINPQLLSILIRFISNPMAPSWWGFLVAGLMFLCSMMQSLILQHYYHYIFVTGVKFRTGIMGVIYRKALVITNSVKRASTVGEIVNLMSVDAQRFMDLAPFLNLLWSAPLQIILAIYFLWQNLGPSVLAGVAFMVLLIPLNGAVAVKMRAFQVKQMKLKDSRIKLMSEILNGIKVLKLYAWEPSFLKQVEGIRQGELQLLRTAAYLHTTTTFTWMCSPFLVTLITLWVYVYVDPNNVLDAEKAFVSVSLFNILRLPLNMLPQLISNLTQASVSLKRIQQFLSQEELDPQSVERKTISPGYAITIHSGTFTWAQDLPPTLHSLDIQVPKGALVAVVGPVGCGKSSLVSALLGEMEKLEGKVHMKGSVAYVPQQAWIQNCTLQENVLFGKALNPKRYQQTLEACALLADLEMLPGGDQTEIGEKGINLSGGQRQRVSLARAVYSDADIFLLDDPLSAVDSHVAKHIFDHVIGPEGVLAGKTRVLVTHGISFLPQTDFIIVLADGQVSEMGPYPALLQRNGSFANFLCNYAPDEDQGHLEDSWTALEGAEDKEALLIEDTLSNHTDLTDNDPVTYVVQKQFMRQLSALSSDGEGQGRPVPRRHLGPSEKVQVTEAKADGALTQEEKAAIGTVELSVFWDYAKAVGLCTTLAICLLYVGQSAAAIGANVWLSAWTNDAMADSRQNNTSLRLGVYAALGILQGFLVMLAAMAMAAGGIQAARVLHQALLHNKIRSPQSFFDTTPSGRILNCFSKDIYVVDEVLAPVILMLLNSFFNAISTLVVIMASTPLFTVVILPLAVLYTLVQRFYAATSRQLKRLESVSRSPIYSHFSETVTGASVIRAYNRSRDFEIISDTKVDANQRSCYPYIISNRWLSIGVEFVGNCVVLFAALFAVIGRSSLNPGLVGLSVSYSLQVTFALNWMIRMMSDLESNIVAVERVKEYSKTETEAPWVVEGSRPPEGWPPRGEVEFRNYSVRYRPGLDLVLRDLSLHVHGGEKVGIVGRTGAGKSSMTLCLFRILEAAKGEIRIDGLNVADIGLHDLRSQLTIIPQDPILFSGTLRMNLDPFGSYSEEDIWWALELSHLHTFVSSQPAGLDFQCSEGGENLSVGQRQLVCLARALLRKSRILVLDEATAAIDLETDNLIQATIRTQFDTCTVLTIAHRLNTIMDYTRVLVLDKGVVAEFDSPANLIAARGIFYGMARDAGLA
T1 sequence (P08183 whole entry): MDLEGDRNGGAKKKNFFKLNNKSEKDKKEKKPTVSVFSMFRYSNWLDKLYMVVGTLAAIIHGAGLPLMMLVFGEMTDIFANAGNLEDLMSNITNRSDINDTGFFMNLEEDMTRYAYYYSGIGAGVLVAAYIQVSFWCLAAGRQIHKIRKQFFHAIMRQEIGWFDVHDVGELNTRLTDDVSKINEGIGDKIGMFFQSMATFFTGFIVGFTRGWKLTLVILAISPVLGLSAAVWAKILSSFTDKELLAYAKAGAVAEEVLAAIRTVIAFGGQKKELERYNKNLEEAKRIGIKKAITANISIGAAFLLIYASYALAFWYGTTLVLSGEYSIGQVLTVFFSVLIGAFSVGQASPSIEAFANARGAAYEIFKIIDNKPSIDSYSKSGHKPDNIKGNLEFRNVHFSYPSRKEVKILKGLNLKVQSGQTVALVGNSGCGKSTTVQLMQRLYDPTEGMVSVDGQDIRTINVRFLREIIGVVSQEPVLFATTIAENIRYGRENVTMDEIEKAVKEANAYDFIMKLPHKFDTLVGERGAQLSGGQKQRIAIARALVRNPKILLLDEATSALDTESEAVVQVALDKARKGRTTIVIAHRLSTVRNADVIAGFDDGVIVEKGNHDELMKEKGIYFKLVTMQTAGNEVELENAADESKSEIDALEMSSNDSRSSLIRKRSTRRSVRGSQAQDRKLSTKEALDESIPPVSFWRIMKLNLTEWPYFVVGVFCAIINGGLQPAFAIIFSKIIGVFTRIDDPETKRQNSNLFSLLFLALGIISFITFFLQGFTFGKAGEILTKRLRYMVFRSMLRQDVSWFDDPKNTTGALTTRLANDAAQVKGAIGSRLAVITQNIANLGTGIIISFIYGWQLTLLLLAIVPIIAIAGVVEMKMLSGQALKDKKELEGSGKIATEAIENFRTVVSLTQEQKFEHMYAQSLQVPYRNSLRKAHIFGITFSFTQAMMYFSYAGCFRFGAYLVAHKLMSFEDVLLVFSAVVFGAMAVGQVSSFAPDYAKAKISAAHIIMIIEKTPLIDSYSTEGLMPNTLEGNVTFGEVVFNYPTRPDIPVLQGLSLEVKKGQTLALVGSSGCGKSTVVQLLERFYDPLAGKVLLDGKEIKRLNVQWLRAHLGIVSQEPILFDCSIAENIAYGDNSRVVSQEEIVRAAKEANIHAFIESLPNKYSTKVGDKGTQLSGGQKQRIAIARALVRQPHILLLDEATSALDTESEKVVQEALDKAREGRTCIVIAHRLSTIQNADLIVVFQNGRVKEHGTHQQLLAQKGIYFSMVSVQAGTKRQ
T2 sequence (Q92887 whole entry): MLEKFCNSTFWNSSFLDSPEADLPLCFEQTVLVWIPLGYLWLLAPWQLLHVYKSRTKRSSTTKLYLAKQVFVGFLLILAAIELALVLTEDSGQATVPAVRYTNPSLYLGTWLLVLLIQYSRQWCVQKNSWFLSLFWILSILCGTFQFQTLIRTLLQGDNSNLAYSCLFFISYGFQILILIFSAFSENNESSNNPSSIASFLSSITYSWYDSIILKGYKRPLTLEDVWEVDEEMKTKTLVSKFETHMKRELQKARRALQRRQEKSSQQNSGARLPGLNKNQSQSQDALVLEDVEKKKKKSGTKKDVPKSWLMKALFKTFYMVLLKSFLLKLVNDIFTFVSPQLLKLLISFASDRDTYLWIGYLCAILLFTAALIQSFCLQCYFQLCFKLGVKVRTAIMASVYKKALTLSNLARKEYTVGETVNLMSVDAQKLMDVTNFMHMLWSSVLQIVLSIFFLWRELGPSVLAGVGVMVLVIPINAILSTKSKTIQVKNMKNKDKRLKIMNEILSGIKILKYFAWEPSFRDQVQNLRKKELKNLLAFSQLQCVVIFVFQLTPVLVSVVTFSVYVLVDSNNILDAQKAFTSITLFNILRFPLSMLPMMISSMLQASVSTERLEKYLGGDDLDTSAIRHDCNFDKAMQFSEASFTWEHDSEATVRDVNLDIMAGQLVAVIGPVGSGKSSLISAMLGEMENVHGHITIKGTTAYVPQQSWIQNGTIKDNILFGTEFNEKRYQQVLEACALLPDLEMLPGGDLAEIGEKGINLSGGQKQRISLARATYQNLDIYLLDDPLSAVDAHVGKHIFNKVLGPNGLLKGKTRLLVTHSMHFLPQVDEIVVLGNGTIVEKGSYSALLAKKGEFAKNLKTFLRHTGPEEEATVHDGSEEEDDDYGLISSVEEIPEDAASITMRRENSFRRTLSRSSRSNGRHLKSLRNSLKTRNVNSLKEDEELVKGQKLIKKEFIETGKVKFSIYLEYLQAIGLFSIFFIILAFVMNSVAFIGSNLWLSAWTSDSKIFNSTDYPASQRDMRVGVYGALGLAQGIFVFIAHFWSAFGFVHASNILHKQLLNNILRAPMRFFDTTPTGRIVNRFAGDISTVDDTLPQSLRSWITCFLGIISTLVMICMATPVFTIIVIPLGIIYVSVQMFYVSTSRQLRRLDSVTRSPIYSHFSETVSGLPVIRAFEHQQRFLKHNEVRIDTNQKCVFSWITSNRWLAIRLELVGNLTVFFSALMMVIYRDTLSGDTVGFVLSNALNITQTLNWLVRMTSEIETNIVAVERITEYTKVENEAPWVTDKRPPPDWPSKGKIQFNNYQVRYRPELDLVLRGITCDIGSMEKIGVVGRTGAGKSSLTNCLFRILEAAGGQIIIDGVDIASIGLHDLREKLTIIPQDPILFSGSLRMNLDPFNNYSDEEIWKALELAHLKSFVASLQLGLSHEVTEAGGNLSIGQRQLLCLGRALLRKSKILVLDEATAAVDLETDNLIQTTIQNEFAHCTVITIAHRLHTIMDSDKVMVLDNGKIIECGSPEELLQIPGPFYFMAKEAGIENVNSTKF

- AUC(0-t) [1, 4]: 4610 ± 781 ng·h/mL
- half-life [1, 4]: 7.67 ± 3.08 h
- Cmax at 5 min [1, 4]: 2950 ± 571 ng/mL
- AUC(0-t) [1, 5]: 2180 ± 304 ng·h/mL
- half-life [1, 5]: 6.76 ± 3.31 h
- Cmax at 5 min [1, 5]: 1560 ± 361 ng/mL
- AUC(0-t) [1, 6]: 189 ± 66 ng·h/mL
- Cmax [1, 6]: 20.4 ± 8.1 ng/mL
- Tmax [1, 6]: 5.2 ± 3.9 h
- half-life [1, 6]: 12.3 ± 5.3 h
- AUC(0-t) [1, 7]: 17 ± 10 ng·h/mL
- Cmax [1, 7]: 2.63 ± 2.68 ng/mL
- Tmax [1, 7]: 4.95 ± 4.84 h
- half-life [1, 7]: 5.56 ± 3.78 h
- AUC0–t, fold higher in CCl4-induced rats than in control rats [1, 8]: 2.1 fold
- AUC0–t, fold higher in CCl4-induced rats than in control rats [1, 9]: 11.1 fold
- share in plasma relative to the main circulating component EZE-Ph [1, 9]: 0.4%
- AUC(0-t) [2, 10]: 191 ng·h/mL
- AUC(0-t) [2, 11]: 56.2 ng·h/mL
- AUC(0-t) [2, 12]: 352 ng·h/mL
- AUC(0-t) [2, 13]: 1850 ng·h/mL
- AUC0-t in portal vein, decrease in CCl4-induced rats compared with control rats [2]: 81.0%
- AUC0–t portal vein plasma vs femoral vein plasma, fold higher ([2]; CCl4-induced rats): 1.84 fold
- AUC0–t portal vein plasma vs femoral vein plasma, fold higher ([2]; control rats): 33.0 fold
- time of second absorption peak ([2]; control rats): 9.5 h
- increase of residue of EZE in CCl4-induced rats compared with control rats (UGTs; liver S9, 0.3 μM EZE): 4.15 fold
- increase of residue of EZE in CCl4-induced rats compared with control rats (UGTs; liver S9, 3 μM EZE): 5.00 fold
- increase of residue of EZE in CCl4-induced rats compared with control rats (UGTs; liver S9, 30 μM EZE): 1.40 fold
- temperature dependence of uptake into isolated rat hepatocytes (rat primary hepatocytes; 37 °C vs 4 °C): independent of temperature
- ATP-dependent transport via MDR1 membrane vesicles (MDR1): No significant ATP-dependent transport
- ATP-dependent transport via MRP2 membrane vesicles (MRP2): No significant ATP-dependent transport
- ATP-dependent transport via MRP3 membrane vesicles (MRP3): No significant ATP-dependent transport
- Autosampler stability (4°C, 24 h), RE ([3]; HQC (800/2400/800 ng/ml)): 3.9%
- Post-extraction stability (room temperature 3 h), RE ([3]; HQC (800/2400/800 ng/ml)): 3.9%
- Autosampler stability (4°C, 24 h), RE ([3]; LQC (3.00/9.00/3.00 ng/ml)): 0.6%
- Post-extraction stability (room temperature 3 h), RE ([3]; LQC (3.00/9.00/3.00 ng/ml)): 0.7%
- stability in rat plasma under the test conditions [3]: stable
- Freeze-thaw stability (−20°C, three cycles), RE ([3]; HQC (800/2400/800 ng/ml)): 1.1%
- Short-term stability (room temperature 3 h), RE ([3]; HQC (800/2400/800 ng/ml)): -5.6%
- Freeze-thaw stability (−20°C, three cycles), RE ([3]; LQC (3.00/9.00/3.00 ng/ml)): -1.0%
- Short-term stability (room temperature 3 h), RE [3, 14]: -11.2%
- stability in blood [3]: stable
SMILES: O=C1[C@H](CC[C@H](O)c2ccc(F)cc2)[C@@H](c2ccc(O)cc2)N1c1ccc(F)cc1 [EZE, 1-(4-fluorophenyl)-3(R)-[3-(4-fluorophenyl)-3(S)-hydroxypropyl]-4(S)-(4-hydroxyphenyl)-2-azetidinone, reference compound]

- AUC(0-t) [1, 4]: 40400 ± 1810 ng·h/mL
- Cmax [1, 4]: 6970 ± 807 ng/mL
- Tmax [1, 4]: 0.45 ± 0.11 h
- half-life [1, 4]: 9.58 ± 6.2 h
- AUC(0-t) [1, 5]: 2470 ± 418 ng·h/mL
- Cmax [1, 5]: 1050 ± 240 ng/mL
- Tmax [1, 5]: 0.083 h
- half-life [1, 5]: 8.96 ± 2.19 h
- AUC(0-t) [1, 6]: 18300 ± 6990 ng·h/mL
- Cmax [1, 6]: 1340 ± 585 ng/mL
- Tmax [1, 6]: 3 ± 1.41 h
- half-life [1, 6]: 8.98 ± 2.1 h
- AUC(0-t) [1, 7]: 4170 ± 1140 ng·h/mL
- Cmax [1, 7]: 276 ± 69 ng/mL
- Tmax [1, 7]: 8.8 ± 4.6 h
- half-life [1, 7]: 5.5 ± 0.36 h
- AUC0–t, fold higher in CCl4-induced rats than in control rats [1, 8]: 16.4 fold
- AUC0–t, fold higher than that of EZE-Hy [1, 8]: approximately 2.5 fold
- AUC0–t, fold higher in CCl4-induced rats than in control rats [1, 9]: 4.4 fold
- AUC(0-t) [2, 10]: 12500 ng·h/mL
- AUC(0-t) [2, 11]: 2580 ng·h/mL
- AUC(0-t) [2, 12]: 15900 ng·h/mL
- AUC(0-t) [2, 13]: 14800 ng·h/mL
- AUC0-t in femoral vein blood, fold increase in CCl4-induced rats vs control [2]: 4.83 fold
- AUC0–t portal vein plasma vs femoral vein plasma, fold higher ([2]; CCl4-induced rats): 1.28 fold
- AUC0–t portal vein plasma vs femoral vein plasma, fold higher ([2]; control rats): 5.75 fold
- decrease of formation of EZE-Ph in CCl4-induced rats compared with control rats (UGTs; liver S9, 0.3 μM EZE): 8.80%
- decrease of formation of EZE-Ph in CCl4-induced rats compared with control rats (UGTs; liver S9, 3 μM EZE): 12.7%
- decrease of formation of EZE-Ph in CCl4-induced rats compared with control rats (UGTs; liver S9, 30 μM EZE): 27.4%
- uptake at 37 °C relative to that at 4 °C (rat primary hepatocytes; rat hepatocytes): 50.0 times
- +ATP/-ATP ratio (MDR1; MDR1 vesicles): 5.64
- +ATP/-ATP ratio (MRP2; MRP2 vesicles): 65.5
- +ATP/-ATP ratio (MRP3; MRP3 vesicles): 5.71
- Autosampler stability (4°C, 24 h), RE ([3]; HQC (800/2400/800 ng/ml)): 6.0%
- Post-extraction stability (room temperature 3 h), RE ([3]; HQC (800/2400/800 ng/ml)): 5.1%
- Autosampler stability (4°C, 24 h), RE ([3]; LQC (3.00/9.00/3.00 ng/ml)): 5.3%
- Post-extraction stability (room temperature 3 h), RE ([3]; LQC (3.00/9.00/3.00 ng/ml)): 8.8%
- stability in rat plasma under the test conditions [3]: stable
- Freeze-thaw stability (−20°C, three cycles), RE ([3]; HQC (800/2400/800 ng/ml)): -0.4%
- Short-term stability (room temperature 3 h), RE ([3]; HQC (800/2400/800 ng/ml)): 0.3%
- Freeze-thaw stability (−20°C, three cycles), RE ([3]; LQC (3.00/9.00/3.00 ng/ml)): 0.8%
- Short-term stability (room temperature 3 h), RE [3, 14]: -1.9%
- stability in blood [3]: stable
SMILES: O=C(O)[C@H]1O[C@@H](Oc2ccc([C@@H]3[C@@H](CC[C@H](O)c4ccc(F)cc4)C(=O)N3c3ccc(F)cc3)cc2)[C@H](O)[C@@H](O)[C@@H]1O [EZE-Ph, ezetimibe phenoxy β-D-glucuronide]
